Patent publication US9023789B2, “Amylin analogs and pharmaceutical compositions thereof” (Novo Nordisk A/S, priority 2012, dated 2015)
In brackets after ≈: the same amount, converted by molar mass. Like-named read-outs stand apart in the source and are kept apart here. Numbered stars: 1 amine (or outer) side, 2 acyl side, 3 side chain; on linkers, the order of the positions; unused ones are H or OH. Bridge positions count the residues as written; N and C are the ends. Side chains are listed from the residue outwards. Peptide text beside a SMILES is read from it. * marks the point of attachment. C20 diacid = O=C(O)CCCCCCCCCCCCCCCCCCC(=O)*; γGlu = O=C(O)[C@H](CCC(=O)[*:2])N[*:1]; AEEA = NCCOCCOCC(=O)O

What was measured:
[1] = molecular target: T1, human amylin receptor (membranes from Amylin 3(a)/CRE-luc cells) (Homo sapiens, UniProt O60896+P30988); assay: ASSAY (V) binding to the human amylin receptor (SPA, 125I-rat amylin);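 note: competition binding of cell membranes (35 ng/µL) mixed with SPA beads in 384-well plates at 40 µL total volume, read by scintillation counting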
T1 construct: expressed in transfected cells
T1 sequence (P30988 25-474): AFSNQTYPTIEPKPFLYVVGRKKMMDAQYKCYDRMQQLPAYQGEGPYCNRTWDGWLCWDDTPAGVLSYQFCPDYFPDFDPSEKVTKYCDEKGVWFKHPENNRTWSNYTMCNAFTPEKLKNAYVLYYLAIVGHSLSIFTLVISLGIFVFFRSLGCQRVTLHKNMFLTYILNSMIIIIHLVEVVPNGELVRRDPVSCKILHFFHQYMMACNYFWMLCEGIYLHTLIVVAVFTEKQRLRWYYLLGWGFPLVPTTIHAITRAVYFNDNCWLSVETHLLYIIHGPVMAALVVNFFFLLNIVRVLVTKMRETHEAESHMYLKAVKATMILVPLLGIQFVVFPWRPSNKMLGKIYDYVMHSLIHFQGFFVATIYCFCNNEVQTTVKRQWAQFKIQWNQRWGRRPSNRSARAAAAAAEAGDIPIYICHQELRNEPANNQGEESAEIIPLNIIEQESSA
T1 sequence (O60896 24-148 partner): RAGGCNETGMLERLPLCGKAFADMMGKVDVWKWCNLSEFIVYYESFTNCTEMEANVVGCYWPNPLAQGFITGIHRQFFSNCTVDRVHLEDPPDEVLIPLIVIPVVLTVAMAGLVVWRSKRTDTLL

rat calcitonin receptor = molecular target: T2, rat calcitonin receptor (Rattus norvegicus, UniProt P32214); assay: ASSAY (VIII) binding to the rat calcitonin receptor; details: Table 7, read-out: rCTR bind IC50
T2 construct: expressed in transfected cells; host or cells: BHK tk'ts 13 (transient, FuGENE 6), membranes
T2 sequence (P32214 25-479 isoform P32214-2 limits assumed): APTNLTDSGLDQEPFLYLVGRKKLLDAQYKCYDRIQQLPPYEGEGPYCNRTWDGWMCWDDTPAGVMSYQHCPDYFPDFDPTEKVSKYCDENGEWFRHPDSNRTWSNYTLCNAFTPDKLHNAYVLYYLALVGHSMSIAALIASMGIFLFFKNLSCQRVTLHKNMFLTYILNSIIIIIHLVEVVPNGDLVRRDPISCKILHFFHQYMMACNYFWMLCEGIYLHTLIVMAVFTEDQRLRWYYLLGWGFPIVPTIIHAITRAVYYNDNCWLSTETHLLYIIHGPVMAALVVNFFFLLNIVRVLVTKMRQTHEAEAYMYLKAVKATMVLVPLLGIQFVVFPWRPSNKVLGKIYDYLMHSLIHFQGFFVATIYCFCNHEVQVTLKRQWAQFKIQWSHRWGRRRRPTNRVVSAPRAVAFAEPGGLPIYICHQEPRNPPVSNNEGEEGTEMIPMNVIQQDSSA
Procedure, shortened: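 BHK tk′ts 13 cells, transient rat calcitonin receptor transfection; DMEM + 10% FBS; harvest ~48 h post-transfection; membrane prep.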

[2] = ASSAY (IV) determination of solubility; type: physicochemical
Procedure, shortened: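 Solubility measured by UPLC of supernatant after centrifugation, following 18 h at room temperature. Peptide ([…] in water) was diluted 1:1 into 100 mM glycylglycine (pH 3.0, 4.0, 5.0) or bistrispropane (pH 6.0-8.0).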

[3] = molecular target: T3, human amylin 3(a) receptor (human calcitonin receptor + RAMP-3) in BHK570 cells (Homo sapiens, UniProt O60896+P30988); assay: ASSAY (II)a functional assay, human amylin receptor (CRE luciferase); type: cell-based
T3 construct: expressed in transfected cells
Procedure, shortened: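 Read-out: CRE-driven luciferase luminescence, single photon counting, after 30 min at room temperature with LucLite. BHK cells expressed calcitonin receptor alone or with RAMP-3 (amylin 3(a)). Cells were stimulated 3 h at 37° C in DMEM, 10% FBS, 10 mM Hepes, pH 7.4.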

[4] = Table 5, selectivity, hCTR bind IC50 / hAmylin-R bind IC50
[5] = Table 5a, selectivity, hCTR bind IC50 / hAmylin-R bind IC50
[6] = Table 5b, selectivity, hCTR bind IC50 / hAmylin-R bind IC50
[7] = Table 5c, selectivity, hCTR bind IC50 / hAmylin-R bind IC50
[8] = Table 7, human binding selectivity, included for comparison
[9] = Table 7a (preferred compounds), human binding selectivity, included for comparison
[10] = ratio of human calcitonin receptor binding IC50 to human amylin receptor binding IC50
[11] = bistrispropane buffer, pH 6.5, read-out: Solubility pH 6.5 Concentration
[12] = bistrispropane buffer, pH 7.5, read-out: Solubility pH 7.5 Concentration
[13] = bistrispropane buffer, pH 6.0, read-out: Solubility pH 6.0 Concentration
[14] = bistrispropane buffer, pH 7.0, read-out: Solubility pH 7.0 Concentration
[15] = bistrispropane buffer, pH 8.0, read-out: Solubility pH 8.0 Concentration
[16] = glycylglycine buffer, pH 3.0, read-out: Solubility pH 3.0 Concentration
[17] = glycylglycine buffer, pH 4.0, read-out: Solubility pH 4.0 Concentration
[18] = glycylglycine buffer, pH 5.0, read-out: Solubility pH 5.0 Concentration
[19] = hCTR funct. EC50 divided by hAmylin-R funct. EC50
[20] = hCTR funct. EC50 over hAmylin-R funct. EC50
[21] = human functional selectivity: hCTR funct. EC50 / hAmylin-R funct. EC50

SMILES	Ratio hCT/hAmylin binding [1, 4]	Ratio hCT/hAmylin binding [1, 5]	Ratio hCT/hAmylin binding [1, 6]	Ratio hCT/hAmylin binding [1, 7]	Ratio hCT/hAmylin binding [1, 8]	Ratio hCT/hAmylin binding [1, 9]	Ratio hCT/hAmylin binding [1, 10]	IC50 (rat calcitonin receptor) [µM]	solubility at 18 h [2, 11] [µM]	solubility at 18 h [2, 12] [µM]	solubility at 18 h [2, 13] [µM]	solubility at 18 h [2, 14] [µM]	solubility at 18 h [2, 15] [µM]	solubility at 18 h [2, 16] [µM]	solubility at 18 h [2, 17] [µM]	solubility at 18 h [2, 18] [µM]	Ratio hCT/hAmylin funct. [3, 19]	Ratio hCT/hAmylin funct. [3, 20]	Ratio hCT/hAmylin funct. [3, 21]	also measured
CC[C@H](C)[C@H](NC(=O)[C@H](C)NC(=O)CNC(=O)[C@H](Cc1ccccc1)NC(=O)[C@H](CC(N)=O)NC(=O)[C@@H]1CCCN1C(=O)[C@H](CO)NC(=O)[C@H](CO)NC(=O)[C@H](Cc1c[nH]cn1)NC(=O)[C@H](CCCNC(=N)N)NC(=O)[C@H](CC(C)C)NC(=O)[C@H](Cc1ccccc1)NC(=O)[C@H](C)NC(=O)[C@H](C)NC(=O)[C@H](CC(C)C)NC(=O)[C@H](CCCNC(=N)N)NC(=O)[C@H](CCC(N)=O)NC(=O)[C@@H](NC(=O)[C@H](C)NC(=O)[C@@H]1CSSC[C@H](NC(=O)[C@@H](N)CCCCNC(=O)CC[C@H](NC(=O)CCCCCCCCCCCCCCCCCCC(=O)O)C(=O)O)C(=O)N[C@@H](CC(N)=O)C(=O)N[C@@H]([C@@H](C)O)C(=O)N[C@@H](C)C(=O)N[C@@H]([C@@H](C)O)C(=O)N1)[C@@H](C)O)C(=O)N1CCC[C@H]1C(=O)N[C@@H](CO)C(=O)N[C@@H](CO)C(=O)N[C@H](C(=O)N[C@@H](CC(N)=O)C(=O)N[C@H](C(=O)NCC(=O)N[C@@H](Cc1c[nH]cn1)C(=O)N[C@@H](CC(N)=O)C(=O)N[C@H](C(=O)N[C@@H](Cc1ccc(O)cc1)C(N)=O)[C@@H](C)O)C(C)C)[C@@H](C)O [Example 93] (H-K([γGlu-C20 diacid])CNTATCATQRLAAFLRHSSPNFGAIPSSTNVGHNTY-NH2; disulfide 2-7; N-terminus assumed)	101.0	101.0	101.0	101.0	101.0	101.0	101.0	0.131	≥ 200	≥ 200	≥ 200	≥ 200	≥ 200	≥ 200	≥ 200	≥ 200	9.7	9.7	9.7	
CC[C@H](C)[C@H](NC(=O)[C@H](C)NC(=O)CNC(=O)[C@H](Cc1ccccc1)NC(=O)[C@H](CC(N)=O)NC(=O)[C@@H]1CCCN1C(=O)[C@H](CO)NC(=O)[C@H](CO)NC(=O)[C@H](Cc1c[nH]cn1)NC(=O)[C@H](CCCNC(=N)N)NC(=O)[C@H](CC(C)C)NC(=O)[C@H](Cc1ccccc1)NC(=O)[C@H](CO)NC(=O)[C@H](C)NC(=O)[C@H](CC(C)C)NC(=O)[C@H](CCCNC(=N)N)NC(=O)[C@H](CCC(N)=O)NC(=O)[C@@H](NC(=O)[C@H](C)NC(=O)[C@@H]1CSSC[C@H](NC(=O)[C@@H](N)CCCCNC(=O)COCCOCCNC(=O)CC[C@H](NC(=O)CCCCCCCCCCCCCCCCCCC(=O)O)C(=O)O)C(=O)N[C@@H](CC(N)=O)C(=O)N[C@@H]([C@@H](C)O)C(=O)N[C@@H](C)C(=O)N[C@@H]([C@@H](C)O)C(=O)N1)[C@@H](C)O)C(=O)N1CCC[C@H]1C(=O)N[C@@H](CO)C(=O)N[C@@H](CO)C(=O)N[C@H](C(=O)N1CCC[C@H]1C(=O)N[C@H](C(=O)NCC(=O)N[C@@H](CO)C(=O)N[C@@H](CC(N)=O)C(=O)N[C@H](C(=O)N[C@@H](Cc1ccc(O)cc1)C(N)=O)[C@@H](C)O)C(C)C)[C@@H](C)O [Example 73] (H-K([AEEA-γGlu-C20 diacid])CNTATCATQRLASFLRHSSPNFGAIPSSTPVGSNTY-NH2; disulfide 2-7 (inferred))	51.7	51.7	51.7	51.7	51.7	51.7	51.7	0.0503									11.3	11.3	11.3	solubility at 18 h ([2]; pH 3.0, read-out: Solubility pH 3.0 Concentration): ≥ 200 µM; solubility at 18 h ([2]; pH 4.0, read-out: Solubility pH 4.0 Concentration): ≥ 200 µM; solubility at 18 h ([2]; pH 5.0, read-out: Solubility pH 5.0 Concentration): ≥ 200 µM; solubility at 18 h ([2]; pH 6.0, read-out: Solubility pH 6.0 Concentration): ≥ 200 µM; solubility at 18 h ([2]; pH 6.5, read-out: Solubility pH 6.5 Concentration): ≥ 200 µM; solubility at 18 h ([2]; pH 7.0, read-out: Solubility pH 7.0 Concentration): ≥ 200 µM; solubility at 18 h ([2]; pH 7.5, read-out: Solubility pH 7.5 Concentration): ≥ 200 µM; solubility at 18 h ([2]; pH 8.0, read-out: Solubility pH 8.0 Concentration): 172 µM (≈ 771 µg/mL)
CC[C@H](C)[C@H](NC(=O)[C@H](C)NC(=O)CNC(=O)[C@H](Cc1ccccc1)NC(=O)[C@H](CC(N)=O)NC(=O)[C@@H]1CCCN1C(=O)[C@H](CO)NC(=O)[C@H](CO)NC(=O)[C@H](Cc1c[nH]cn1)NC(=O)[C@H](CCCNC(=N)N)NC(=O)[C@H](CC(C)C)NC(=O)[C@H](Cc1ccccc1)NC(=O)[C@H](CCC(=O)O)NC(=O)[C@H](C)NC(=O)[C@H](CC(C)C)NC(=O)[C@H](CCCNC(=N)N)NC(=O)[C@H](CCC(N)=O)NC(=O)[C@@H](NC(=O)[C@H](C)NC(=O)[C@@H]1CSSC[C@H](NC(=O)[C@H](CCCCN)NC(=O)CC[C@H](NC(=O)CCCCCCCCCCCCCCCCCCC(=O)O)C(=O)O)C(=O)N[C@@H](CC(N)=O)C(=O)N[C@@H]([C@@H](C)O)C(=O)N[C@@H](C)C(=O)N[C@@H]([C@@H](C)O)C(=O)N1)[C@@H](C)O)C(=O)N1CCC[C@H]1C(=O)N[C@@H](CO)C(=O)N[C@@H](CO)C(=O)N[C@H](C(=O)N1CCC[C@H]1C(=O)N[C@H](C(=O)NCC(=O)N[C@@H](CO)C(=O)N[C@@H](CC(N)=O)C(=O)N[C@H](C(=O)N[C@@H](Cc1ccc(O)cc1)C(N)=O)[C@@H](C)O)C(C)C)[C@@H](C)O [Example 31] ({C20 diacid-γGlu}-KCNTATCATQRLAEFLRHSSPNFGAIPSSTPVGSNTY-NH2; disulfide 2-7 (inferred))	16.0	16.0	16.0		16.0	16.0	16.0	0.0265	≥ 200	≥ 200	≥ 200	≥ 200	≥ 200	≥ 200	≥ 200	≥ 200	6.4	6.4	6.4	
